Literature values, collected in US20140072530A1, “TREATMENT OF HIV” (priority 2006, published 2014).

What was measured:
[1] = tested on: whole blood samples stimulated with LPS; conditions: LPS-stimulated whole blood of HIV patients; concentration-dependent
[2] = tested on: normal peripheral blood mononuclear cells (PBMC); conditions: induced by HIV envelope glycoprotein gp 120, normal PBMC

ACTH (1-24): Melanocortin peptide, fragment 1-24 of adrenocorticotropic hormone (SYSMEHFRWGKPVGKKRRPVKVYP; Corticotropin; UniProt P01189 138-161, looked up, fragment)
production of IL-1 [1]: reduced | production of TNF-α [1]: reduced

adrenocorticotropic hormone [ACTH (1-39] (SYSMEHFRWGKPVGKKRRPVKVYPNGAEDESAEAFPLEF; Corticotropin; UniProt P01189 138-176, looked up) [ACTH (1-39), Proopiomelanocortin-derived melanocortin peptide]
production of IL-1 [1]: reduced | production of TNF-α [1]: reduced

α-melanocyte-stimulating hormone [α-MSH (1-13), α-melanocyte-stimulating hormone [α-MSH (1-13)]]
production of IL-1β [2]: inhibit | production of TNF-α [2]: inhibit | production of IL-1 [1]: reduced | production of TNF-α [1]: reduced
